The subject of one test is FABP4 mRNA expression. Nature of the test: PCR of FABP4 mRNA during adipocyte differentiation of embryonic stem cells. The test is classed as cell-based, mouse. The following applies: SIRT1+/+ cells treated with EX527 10 μM, harvested 7 and 10 days after induction, FIG. 3. The method, then:
(§1) In the present disclosure, in order to confirm the mechanism of regulating the differentiation of embryonic stem cells into adipocytes by SIRT1, in the step of differentiating into adipocytes, mRNA expression levels of peroxisome proliferator-activated receptors-γ (PPARγ), CCAAT/enhancer-binding protein-α (C/EBP α) and fatty acid binding protein 4 (FABP4) in adipocytes were measured by a PCR method. Each primer used in the PCR method was as represented in Table 1 and was manufactured by Bioneer (Korea). GAPDH was used as a control group for the reliability of the PCR method.
(§2) In the same manner as in Example 2, differentiation of embryonic stem cells into adipocytes was induced, each cell was harvested on 7 and 10 days after induction of lipid differentiation, and total RNAs were extracted using TRIzol reagent (Life Technology, USA). The extracted RNAs were synthesized into cDNAs using a cDNA synthesis kit (Roche, Germany) and a PCR method was carried out using the primers represented in Table 1.

Another test has as its system WT1 mRNA expression. The experiment in a line: Quantitative PCR of WT1 mRNA during differentiation of embryonic stem cells into kidney precursor cells. The test is classed as cell-based, mouse. The note with it: for mRNA expression level of WT1: embryonic stem cells, EX527 5-10 uM, resveratrol 10-20 uM, FIG. 7A. As for the experimental part:
(§3) The cell culture media, from which Leukemia Inhibitory Factor (LIF; Milipore, USA) was removed, were treated with 100 nmol/L Retinoic acid and 10 ng/mL Activin A, and then mRNA expression levels of Six2 and WT1, kidney precursor cells, were measured. In the process of induction into kidney precursor cells, embryonic stem cells were inoculated into wells of a 6-well plate to be cultured therein.
(§4) The media for differentiation into kidney precursor cells were cultured by adding 2 mM Gluta MAX™ (Gibco, USA), 1× Non-essential aminoacid, (1×NEAA; Gibco, USA), 0.1 mM beta-mercaptoethanol (Invitrogen, USA) and […] to DMEM.
(§5) In the step for differentiation of embryonic stem cells into kidney precursor cells, mRNA expression levels of Six2 and WT1, indicators of kidney precursor cells, were measured by a PCR method. Each primer used in the PCR method was as represented in Table 2 and was manufactured by Bioneer (Korea). GAPDH was used as a control group for the reliability of the PCR method.
(§6) In the same manner as in Example 6, differentiation of embryonic stem cells into kidney precursor cells was induced, each cell was harvested on day 11 of differentiation induction and then total RNAs were extracted using TRIzol reagent (Life Technology, USA). The extracted RNAs were synthesized into cDNAs using a cDNA synthesis kit (Roche, Germany) and a PCR method was carried out using the primers represented in Table 2.
(§7) In order to confirm the differentiation of embryonic stem cells into kidney precursor cells according to the inhibition or promotion of SIRT1 protein expression, the differentiation of the embryonic stem cells (SIRT1+/+; WT) expressing the SIRT1 genes, which were prepared in Example 1, into kidney precursor cells was confirmed. The differentiation was confirmed by protein expression levels of Six2 and WT1, indicators of kidney precursor cells.
(§8) In the step for differentiation of embryonic stem cells into kidney precursor cells, mRNA expression levels of Six2 and WT1, indicators of kidney precursor cells, were measured by a quantitative PCR method.

The next test concerns Six2 mRNA expression. The experiment in a line: Quantitative PCR of Six2 mRNA during differentiation of embryonic stem cells into kidney precursor cells. The test is classed as cell-based, mouse. The following applies: for mRNA expression level of Six2: embryonic stem cells, EX527 5-10 uM, resveratrol 10-20 uM, FIG. 7B. The method, then:
as §3, §4, §5, §6, §7, §8

The next test has as its system C/EBP α mRNA expression. The experiment in a line: PCR of C/EBP α mRNA during adipocyte differentiation of embryonic stem cells. Type of test: cell-based, mouse. The following applies: SIRT1+/+ cells treated with EX527 10 μM, harvested 7 and 10 days after induction, FIG. 3. As for the experimental part:
as §1, §2

For test [1], the system named is mouse embryonic stem cells (SIRT1+/+; WT), differentiation into adipocytes. Nature of the test: Oil Red O staining of embryonic stem cells differentiated into adipocytes. Type of test: cell-based. The following applies: for differentiation into adipocytes versus group without inhibitor (Oil Red O): EX527 10 μM, FIG. 4. The method, then:
In the present disclosure, in order to determine whether differentiation of embryonic stem cells into adipocytes was affected by the presence or absence of SIRT1 protein expression, degrees of differentiation of the embryonic stem cells (SIRT1+/+; WT) expressing the SIRT1 genes and the mouse embryonic stem cells lacking SIRT1 genes (SIRT1−/−; KO), prepared in Example 1, were determined, and when EX527 (10 μM, Tocris, UK), SIRT1 inhibitor, was treated with SIRT1+/+ embryonic stem cells, the degree of lipid differentiation according to SITRT1 inhibition was determined.
In the hanging-drop culture, 1000 embryonic stem cells were added into 20 μl to prepare a single embryoid body, the process of induction into adipocytes was cultured by inoculating 15 cultures into each well using a 6-well plate.
The medium for differentiation into adipocyte was prepared by adding 85 nM insulin (Sigma, USA), 2 nM triiodothyronine (Sigma, USA) and 2 μM rosiglitazone (Sigma, USA) to DMEM and embryoid bodies were cultured, the medium exchange was performed daily.
In addition, SIRT1 inhibitor EX527 was added to SIRT1+/+ embryonic stem cells until the early 5th day of differentiation into adipocytes.
Oil Red O staining was performed to determine whether the differentiation into adipocytes was successfully performed in mouse embryonic stem cells differentiated for 21 days in Example 2.
First, SIRT1+/+ cells, SIRT1−/− cells, and SIRT1+/+ cells differentiated by treatment with SIRT1 inhibitor were treated with 10% formaldehyde to fix the cells, the formaldehyde was washed with phosphate buffered saline three times and then was treated with 60% isopropanol. Then, 2 ml Oil Red O staining solution was added and the mixture was stained at room temperature for 30 minutes in the dark, and then was washed with phosphate buffered saline three times.
Oil Red O staining was performed on the lipid droplets in the differentiated adipocytes. After staining, the cells were observed using a microscope to identify red-stained fat adipocytes.
When the observation was completed, stained dye in adipocyte was extracted using 1 ml isopropanol per well and optical density (OD) was measured at 500 nm with an ELISA reader. The Oil Red O staining solution is a solution of 500 mg of Oil Red O dye (Sigma, USA) in 100 ml isopropanol, mixed with distilled water at a ratio of 6:4 and filtered using a 0.45 μm filter.
In the same manner as in Example 2, differentiation of embryonic stem cells into adipocytes was induced. The samples were divided into various groups: a group treated for 0 to 5 days at the early stage of differentiation, a group treated for 7 to 21 days at the latter stage of differentiation, and a group treated for 0 to 21 days during the entire differentiation period, which were treated with the SIRT1 inhibitor.

The next test relates to PPARγ mRNA expression. The experiment in a line: PCR of PPARγ mRNA during adipocyte differentiation of embryonic stem cells. The following applies: SIRT1+/+ cells treated with EX527 10 μM, harvested 7 and 10 days after induction, FIG. 3. The test is classed as cell-based, mouse. As for the experimental part: as §1, §2

Molecules are shown by their SMILES.

Regarding `NC(=O)C1CCCc2c1[nH]c1ccc(Cl)cc21` (stereo not shown) [EX527, 6-Chloro-2,3,4,9-tetrahydro-1H-Carbazole-1-carboxamide], the “mRNA expression of FABP4” value with FABP4 mRNA expression was “significantly decreased”. Moreover, the “mRNA expression level of WT1” value with WT1 mRNA expression is given as “significantly decreased”; in the test with WT1 mRNA expression (listed as SIRT1 inhibitor), “decreased”. In addition, the “mRNA expression level of Six2” value in the test on Six2 mRNA expression was “significantly decreased”; in the test on Six2 mRNA expression (listed as SIRT1 inhibitor) it was “decreased”. The “mRNA expression of C/EBP α” value in the test with C/EBP α mRNA expression is “significantly decreased”. Further, the “differentiation into adipocytes versus group without inhibitor (Oil Red O)” value in test [1] (treated 0 to 5 days, early stage of differentiation) was “decrease in differentiation into adipocytes”; in test [1] (treated 0 to 21 days, entire differentiation period) it was “not significantly different”; in test [1] (treated 7 to 21 days, latter stage of differentiation) it was “more differentiated into adipocytes”. The “adipocyte differentiation (lipid droplets, Oil Red O staining, microscope) versus SIRT1+/+ cells” value in test [1] (SIRT1+/+ cells, EX527 10 μM until early 5th day of differentiation, 21 days differentiation, FIG. 2A) is reported as “remarkably lower”. Moreover, in test [1] (SIRT1+/+ cells, EX527 10 μM until early 5th day, compared to SIRT1+/+ cells, FIG. 2B), the “reduction of adipocyte differentiation (absorbance at 500 nm of extracted Oil Red O)” value is “about 38%”. For the same compound, the “mRNA expression of PPARγ” value in the test with PPARγ mRNA expression is on record as “significantly decreased”.

In the case of `Oc1ccc(C=Cc2cc(O)cc(O)c2)cc1` [resveratrol], the “mRNA expression level of WT1” value with WT1 mRNA expression is on record as “significantly increased”. Also, the “expression of WT1 compared with control” value in the test on WT1 mRNA expression (resveratrol 20 μM) is reported as “significantly promoted”. In the test on Six2 mRNA expression, the “mRNA expression level of Six2” value is “significantly increased”. In addition, in the test on Six2 mRNA expression (resveratrol 20 μM), the “expression of Six2 compared with control” value is on record as “significantly promoted”.

These data come from patent US10662407B2, “Method for controlling differentiation of embryonic stem cells into adipocytes or kidney precursor cells by regulating SIRT1 expression” (INDUSTRIAL COOPERATION FOUNDATION CHONBUK NATIONAL …, priority 2015, dated 2020).
